# Source: US20120149900A1, “FLUORINE CONTAINING COMPOUNDS AND METHODS OF USE THEREOF” (priority 2009, published 2012)
# pIC50, pKi: −log10 of the molar value. Entries after “also recorded” stand apart in the source; their conditions may differ.
# Experiments:
# [1] = biological target: opioid (non-selective) receptor; experiment: Receptor binding assay, opioid (non-selective) (antagonist radioligand)
# From the text: (§1) Receptor binding assays (Table 1 and FIGS. 1-4)
# [2] = biological target: T1, human delta 2 (DOP) receptor (Homo sapiens, UniProt P41143); experiment: Receptor binding assay, δ2 (DOP) (h) (agonist radioligand)
# T1 construct: Cerep
# T1 sequence (P41143 whole entry): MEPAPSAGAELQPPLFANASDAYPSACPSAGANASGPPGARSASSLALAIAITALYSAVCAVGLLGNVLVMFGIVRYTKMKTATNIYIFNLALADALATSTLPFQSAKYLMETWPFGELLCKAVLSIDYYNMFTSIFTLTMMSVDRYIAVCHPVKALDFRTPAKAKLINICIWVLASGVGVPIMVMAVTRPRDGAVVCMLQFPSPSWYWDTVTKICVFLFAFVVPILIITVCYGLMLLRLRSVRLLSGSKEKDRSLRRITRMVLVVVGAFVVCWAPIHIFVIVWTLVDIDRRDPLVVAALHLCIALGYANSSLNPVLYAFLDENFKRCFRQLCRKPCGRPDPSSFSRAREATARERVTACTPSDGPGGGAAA
# From the text: as §1
# [3] = biological target: T2, kappa (KOP) receptor (Rattus norvegicus, UniProt P34975); experiment: Receptor binding assay, κ (KOP) (agonist radioligand)
# T2 construct: Cerep
# T2 sequence (P34975 whole entry): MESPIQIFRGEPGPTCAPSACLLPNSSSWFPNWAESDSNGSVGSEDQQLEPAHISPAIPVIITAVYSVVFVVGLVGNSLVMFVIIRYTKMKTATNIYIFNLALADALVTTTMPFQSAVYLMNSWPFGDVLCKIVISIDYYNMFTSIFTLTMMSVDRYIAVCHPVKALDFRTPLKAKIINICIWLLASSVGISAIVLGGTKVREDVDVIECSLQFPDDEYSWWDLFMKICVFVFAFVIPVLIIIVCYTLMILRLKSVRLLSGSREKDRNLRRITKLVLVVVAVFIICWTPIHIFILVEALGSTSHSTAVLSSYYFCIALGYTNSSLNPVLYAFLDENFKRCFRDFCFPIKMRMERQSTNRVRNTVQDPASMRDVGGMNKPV
# From the text: as §1
# [4] = biological target: T3, human mu (MOP) receptor (Homo sapiens, UniProt P35372); experiment: Receptor binding assay, μ (MOP) (h) (agonist radioligand)
# T3 construct: Cerep
# T3 sequence (P35372 whole entry): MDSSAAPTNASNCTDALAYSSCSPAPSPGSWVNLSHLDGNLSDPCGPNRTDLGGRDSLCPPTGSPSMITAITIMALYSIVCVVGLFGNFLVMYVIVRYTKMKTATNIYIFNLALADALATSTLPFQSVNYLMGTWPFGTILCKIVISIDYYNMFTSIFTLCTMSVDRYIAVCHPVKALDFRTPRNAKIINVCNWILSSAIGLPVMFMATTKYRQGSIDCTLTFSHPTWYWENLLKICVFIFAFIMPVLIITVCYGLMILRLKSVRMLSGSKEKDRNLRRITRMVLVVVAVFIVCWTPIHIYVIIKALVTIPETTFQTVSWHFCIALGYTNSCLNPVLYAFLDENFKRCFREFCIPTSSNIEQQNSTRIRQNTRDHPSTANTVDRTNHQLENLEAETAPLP
# From the text: as §1
# [5] = biological target: mu opioid receptor (Homo sapiens, UniProt P35372); experiment: Cellular functional assay, mu opioid receptor; format: cell-based; settings: EC50 values were not determined
# Chain of mu opioid receptor (P35372 whole entry): as above
# [6] = biological target: kappa opioid receptor (Homo sapiens, UniProt P41145); experiment: Cellular functional assay, kappa opioid receptor; format: cell-based; settings: EC50 values were not determined
# Chain of kappa opioid receptor (P41145 whole entry): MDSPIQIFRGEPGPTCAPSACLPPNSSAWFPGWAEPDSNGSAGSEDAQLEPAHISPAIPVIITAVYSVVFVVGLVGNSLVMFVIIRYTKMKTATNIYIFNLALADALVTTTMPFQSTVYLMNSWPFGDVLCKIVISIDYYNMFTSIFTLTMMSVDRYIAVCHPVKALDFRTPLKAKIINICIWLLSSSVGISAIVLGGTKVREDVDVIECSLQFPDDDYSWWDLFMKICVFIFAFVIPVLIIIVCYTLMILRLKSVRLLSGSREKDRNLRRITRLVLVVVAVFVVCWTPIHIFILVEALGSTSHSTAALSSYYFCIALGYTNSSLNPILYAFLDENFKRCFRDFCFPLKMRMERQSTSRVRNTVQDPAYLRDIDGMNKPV
# [7] = In vivo pharmacokinetics and brain partition study; settings: rats, fasted, single 1 mg/kg iv dose
# Protocol: single 1 mg/kg iv dose administered in rats under fasted conditions plasma concentrations determined at 10 time points (2 mins -24 hrs) brain partition ratio determined at 1 and 4 hours
smiles,measurement,setting,value
CN1CC[C@]23c4c5ccc(F)c4O[C@H]2[C@@H](O)C=C[C@H]3[C@H]1C5 [F-morphine],pIC50,[1],6.10
same,pKi,[1],6.24
same,Delta: binding,[2],no observed binding; also recorded: no significant binding up to 10 uM
same,pIC50,[2],< 5.00
same,pIC50,[3],5.07
same,pKi,[3],5.25
same,nH,[3]; agonist radioligand,1.1
same,pIC50,[4],6.43
same,pKi,[4],6.82
same,nH,[4]; agonist radioligand,0.9
same,function at mu opioid receptor,[5],agonist
same,function at kappa opioid receptor,[6],agonist
same,Kp at 4 h,"[7]; rat, brain/plasma, at 1 and 4 hours, read-out: brain/plasma ratio",2 to 3
same,brain partition (in words),[7],partitions well into the brain
